Measured values as given in patent US6737383B1, “Herbicidal oxadiazolidines” (priority 1999, dated 2004).

Key:
cocklebur = experiment: Test B pre/postemergence cocklebur; assay type: in vivo, Xanthium strumarium
Outline: (§1)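 Test chemicals in a non-phytotoxic solvent mixture with surfactant were sprayed preemergence onto planted seeds and postemergence onto plants 2 to 18 cm tall (1- to 4-leaf stage). After twelve to sixteen days in a greenhouse, injury was visually rated against untreated controls from 0 (no effect) to 10 (complete control).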

surinam grass = experiment: Test B pre/postemergence surinam grass; assay type: in vivo, Brachiaria decumbens
Outline: as §1

blackgrass = experiment: Test B pre/postemergence blackgrass; assay type: in vivo, Alopecurus myosuroides
Outline: as §1

crabgrass = experiment: Test B pre/postemergence crabgrass; assay type: in vivo, Digitaria sanguinalis
Outline: as §1

duck salad = experiment: Test B flood test duck salad; assay type: in vivo, Heteranthera limosa
Outline: (§2)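 Read-out is a visual response score from 0 (no effect) to 10 (complete control), assigned by comparison with untreated controls. Treatment was applied at the 2-leaf stage, and plants stayed in the greenhouse for twelve to sixteen days before scoring.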

soybean = experiment: Test B pre/postemergence soybean; assay type: in vivo, Glycine max
Outline: as §1

velvetleaf = experiment: Test B pre/postemergence velvetleaf; assay type: in vivo, Abutilon theophrasti
Outline: as §1

purple nutsedge = experiment: Test B pre/postemergence purple nutsedge; assay type: in vivo, Cyperus rotundus
Outline: as §1

bedstraw = experiment: Test B pre/postemergence bedstraw; assay type: in vivo, Galium aparine
Outline: as §1

pigweed = experiment: Test B pre/postemergence pigweed; assay type: in vivo, Amaranthus retroflexus
Outline: as §1

rice = experiment: Test B flood test rice; assay type: in vivo, Oryza sativa
Outline: as §2

sugar beet = experiment: Test B pre/postemergence sugar beet; assay type: in vivo, Beta vulgaris
Outline: as §1

corn = experiment: Test B pre/postemergence corn; assay type: in vivo, Zea mays
Outline: as §1

wild oat = experiment: Test B pre/postemergence wild oat; assay type: in vivo, Avena fatua
Outline: as §1

wheat = experiment: Test B pre/postemergence wheat; assay type: in vivo, Triticum aestivum
Outline: as §1

giant foxtail = experiment: Test B pre/postemergence giant foxtail; assay type: in vivo, Setaria faberii
Outline: as §1

[1] = Postemergence, Rate 62 g/ha, scale 0 to 10, 0 is no effect, 10 is complete control
[2] = Postemergence, Rate 125 g/ha, scale of 0 to 10 where 0 is no effect and 10 is complete control
[3] = Preemergence, Rate 125 g/ha, scale of 0 to 10 where 0 is no effect and 10 is complete control
[4] = Preemergence, Rate 250 g/ha, scale 0 (no effect) to 10 (complete control)
[5] = Rate 62 g/ha, Preemergence, scale 0 to 10
[6] = Rate 250 g/ha, Postemergence, scale 0 to 10, 0 is no effect, 10 is complete control
[7] = Rate 500 g/ha, Postemergence, scale 0 to 10, 0 is no effect, 10 is complete control
[8] = Rate 500 g/ha, Preemergence, scale 0 to 10 (0 no effect, 10 complete control)
[9] = Pre-emergence, Rate 62 g/ha, scale 0 to 10, 0 is no effect, 10 is complete control
[10] = Rate 125 g/ha, Pre-emergence section (flood test species), scale 0 to 10, 0 no effect, 10 complete control
[11] = Rate 250 g/ha, Pre-emergence (flood test species), scale 0 to 10, 0 is no effect, 10 is complete control
[12] = Rate 500 g/ha, Pre-emergence section of Table B, 0 to 10 scale (0 no effect, 10 complete control)

## CC(C)N(C(=O)n1oc(=O)n(CC2=NOCCO2)c1=O)c1ccc(F)cc1F [Compound 758]
cocklebur; [1]
  Plant response rating, Cocklebur: 0
cocklebur; [2]
  Cocklebur plant response rating: 0
cocklebur; [3]
  Plant response rating, Cocklebur: 0
cocklebur; [4]
  Cocklebur plant response rating: 0
cocklebur; [5]
  Cocklebur plant response rating: 0
cocklebur; [6]
  Cocklebur plant response rating: 4
cocklebur; [7]
  Cocklebur plant response rating: 4
cocklebur; [8]
  Cocklebur plant response rating: 0
Surinam grass; [1]
  Plant response rating, B. signalgrass: 4
Surinam grass; [2]
  B. signalgrass plant response rating: 5
Surinam grass; Preemergence, Rate 62 g/ha, scale of 0 to 10 where 0 is no effect and 10 is complete control
  B. signalgrass plant response rating: 6
Surinam grass; [3]
  Plant response rating, B. signalgrass: 6
Surinam grass; [4]
  B. signalgrass plant response rating: 7
Surinam grass; [6]
  B. signalgrass plant response rating: 6
Surinam grass; [7]
  B. signalgrass plant response rating: 7
Surinam grass; [8]
  B. signalgrass plant response rating: 8
blackgrass; [1]
  Plant response rating, Blackgrass: 3
blackgrass; [2]
  Blackgrass plant response rating: 6
blackgrass; [3]
  Plant response rating, Blackgrass: 8
blackgrass; [4]
  Blackgrass plant response rating: 8
blackgrass; [5]
  Blackgrass plant response rating: 6
blackgrass; [6]
  Blackgrass plant response rating: 6
blackgrass; [7]
  Blackgrass plant response rating: 6
blackgrass; [8]
  Blackgrass plant response rating: 9
crabgrass; [1]
  Plant response rating, Crabgrass: 2
crabgrass; [2]
  Crabgrass plant response rating: 3
crabgrass; [3]
  Plant response rating, Crabgrass: 9
crabgrass; [4]
  Crabgrass plant response rating: 10
crabgrass; [5]
  Crabgrass plant response rating: 9
crabgrass; [6]
  Crabgrass plant response rating: 8
crabgrass; [7]
  Crabgrass plant response rating: 9
crabgrass; [8]
  Crabgrass plant response rating: 10
Duck salad; [9]
  Ducksalad plant response rating: 0
Duck salad; [10]
  Ducksalad plant response rating: 0
Duck salad; [11]
  Ducksalad plant response rating: 0
Duck salad; [12]
  Ducksalad plant response rating: 0
soybean; [1]
  Plant response rating, Soybean: 4
soybean; [3]
  Plant response rating, Soybean: 0
soybean; [4]
  Soybean plant response rating: 0
soybean; [5]
  Soybean plant response rating: 0
soybean; [6]
  Soybean plant response rating: 5
soybean; [7]
  Soybean plant response rating: 5
soybean; [8]
  Soybean plant response rating: 0
velvetleaf; [1]
  Plant response rating, Velvetleaf: 5
velvetleaf; [3]
  Plant response rating, Velvetleaf: 4
velvetleaf; [4]
  Velvetleaf plant response rating: 4
velvetleaf; [5]
  Velvetleaf plant response rating: 2
velvetleaf; [6]
  Velvetleaf plant response rating: 6
velvetleaf; [7]
  Velvetleaf plant response rating: 7
velvetleaf; [8]
  Velvetleaf plant response rating: 7
Purple nutsedge; [1]
  Plant response rating, Nutsedge: 0
Purple nutsedge; [2]
  Nutsedge plant response rating: 0
Purple nutsedge; [3]
  Plant response rating, Nutsedge: 0
Purple nutsedge; [4]
  Nutsedge plant response rating: 0
Purple nutsedge; [5]
  Nutsedge plant response rating: 0
Purple nutsedge; [6]
  Nutsedge plant response rating: 0
Purple nutsedge; [7]
  Nutsedge plant response rating: 0
bedstraw; [2]
  Bedstraw plant response rating: 7
bedstraw; [3]
  Plant response rating, Bedstraw: 1
bedstraw; [4]
  Bedstraw plant response rating: 3
bedstraw; [5]
  Bedstraw plant response rating: 0
bedstraw; [6]
  Bedstraw plant response rating: 7
bedstraw; [7]
  Bedstraw plant response rating: 8
bedstraw; [8]
  Bedstraw plant response rating: 4
pigweed; [1]
  Plant response rating, Redroot pigweed: 7
pigweed; [2]
  Redroot pigweed plant response rating: 8
pigweed; [3]
  Plant response rating, Redroot pigweed: 8
pigweed; [4]
  Redroot pigweed plant response rating: 8
pigweed; [5]
  Redroot pigweed plant response rating: 8
pigweed; [6]
  Redroot pigweed plant response rating: 8
pigweed; [7]
  Redroot pigweed plant response rating: 8
pigweed; [8]
  Redroot pigweed plant response rating: 10
rice; [9]
  Rice plant response rating: 0
rice; [10]
  Rice plant response rating: 0
rice; [11]
  Rice plant response rating: 0
rice; [12]
  Rice plant response rating: 0
Sugar beet; [1]
  Plant response rating, Sugarbeets: 0
Sugar beet; [3]
  Plant response rating, Sugarbeets: 7
Sugar beet; [4]
  Sugarbeets plant response rating: 7
Sugar beet; [5]
  Sugarbeets plant response rating: 5
Sugar beet; [6]
  Sugarbeets plant response rating: 3
Sugar beet; [7]
  Sugarbeets plant response rating: 8
Sugar beet; [8]
  Sugarbeets plant response rating: 8
corn; [1]
  Plant response rating, Corn: 0
corn; [2]
  Corn plant response rating: 0
corn; [3]
  Plant response rating, Corn: 0
corn; [5]
  Corn plant response rating: 0
corn; [6]
  Corn plant response rating: 0
corn; [7]
  Corn plant response rating: 3
corn; [8]
  Corn plant response rating: 3
Wild oat; [1]
  Plant response rating, Wild oats: 0
Wild oat; [3]
  Plant response rating, Wild oats: 8
Wild oat; [4]
  Wild oats plant response rating: 8
Wild oat; [5]
  Wild oats plant response rating: 5
Wild oat; [6]
  Wild oats plant response rating: 1
Wild oat; [7]
  Wild oats plant response rating: 2
Wild oat; [8]
  Wild oats plant response rating: 9
wheat; [1]
  Plant response rating, Wheat: 0
wheat; [3]
  Plant response rating, Wheat: 5
wheat; [4]
  Wheat plant response rating: 5
wheat; [5]
  Wheat plant response rating: 4
wheat; [6]
  Wheat plant response rating: 5
wheat; [7]
  Wheat plant response rating: 6
wheat; [8]
  Wheat plant response rating: 7
Giant foxtail; [1]
  Plant response rating, Giant foxtail: 8
Giant foxtail; [2]
  Giant foxtail plant response rating: 9
Giant foxtail; [3]
  Plant response rating, Giant foxtail: 9
Giant foxtail; [4]
  Giant foxtail plant response rating: 10
Giant foxtail; [5]
  Giant foxtail plant response rating: 9
Giant foxtail; [6]
  Giant foxtail plant response rating: 9
Giant foxtail; [7]
  Giant foxtail plant response rating: 9
Giant foxtail; [8]
  Giant foxtail plant response rating: 10
